We go through eight compounds from PubChem BioAssay (NCI).

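Step 1: Grow cells in 96-well plates. Step 2: Expose to compound for 48 hours at 5 concentrations. Step 3: Interpolate endpoints linearly; if unreached, use highest concentration. At the TGI there is no net growth.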

Among the test systems are KM20L2 colon; M19-MEL melanoma; DLD-1 colon; DMS 114 small cell lung; RXF-631 renal; HOP-18 NSCLC; P388 leukemia; SN12K1 renal; P388/ADR leukemia.
Common to all, as to test: NCI tumour cell line growth inhibition, 48 h

With `O=C(Nc1cccc([N+](=O)[O-])c1)C(=O)C(C(=O)c1ccccc1F)C1OC(=O)C2C=CC=CC21` (configuration not stated), the TGI in the test on KM20L2 colon, with M19-MEL melanoma and in the test on DLD-1 colon was more than 100 µM each time.
Regarding `CCOC(=O)C(=O)Nc1c(CC)cccc1C(C)CC` (configuration not stated), the TGI in the test on KM20L2 colon, in the test with M19-MEL melanoma, with DMS 114 small cell lung, with DLD-1 colon, in the test on RXF-631 renal and in the test with HOP-18 NSCLC was more than 100 µM throughout.
On to `Nc1cccc2c1C1=NNC(=O)CC1C2` (configuration not stated), for which the TGI with KM20L2 colon, with M19-MEL melanoma, with DMS 114 small cell lung, with DLD-1 colon, in the test with P388 leukemia and in the test on SN12K1 renal was more than 100 µM in each case.
`CC(=O)N1CC(=O)NC1=S`: the TGI in the test on KM20L2 colon, in the test on M19-MEL melanoma, in the test with DMS 114 small cell lung and in the test on DLD-1 colon was more than 100 µM throughout.
With `Cc1c2cc[n+](C)cc2c(C)c2c1[nH]c1ccc(Cl)cc12`, the TGI in the test on KM20L2 colon is 46 µM; in the test on M19-MEL melanoma, 3.94 µM; in the test with DMS 114 small cell lung, 2.78 µM; in the test on DLD-1 colon, more than 100 µM; in the test on HOP-18 NSCLC, 22.7 µM.
Take `N#CCCOCN(CO)c1nc(N(CO)COCCC#N)nc(N(CO)COCCC#N)n1`: the TGI in the test on KM20L2 colon was found to be 61.5 µM; with M19-MEL melanoma, 50 µM; with DMS 114 small cell lung, 52.4 µM; with DLD-1 colon it was 75.9 µM; in the test with HOP-18 NSCLC, 59.6 µM.
For `C=Cc1cc(OC)c2c(c1)c(=O)oc1c2cc(OC)c2c(O)ccc(C3OC(C)C(O)C(C)(O)C3O)c21` (configuration not stated), the TGI with KM20L2 colon stood at 0.161 µM; in the test on M19-MEL melanoma, 0.16 µM; in the test on DMS 114 small cell lung it was 0.0393 µM; in the test on DLD-1 colon, 1.07 µM; in the test with HOP-18 NSCLC, 0.392 µM; in the test on P388/ADR leukemia, 0.804 µM. Besides, the results for the TGI in the test on P388 leukemia and in the test on SN12K1 renal were 0.529 µM and 0.131 µM, respectively.
For `Cc1ccc2ccc3ccc(C)nc3c2n1`, the TGI is more than 100 µM in the test with KM20L2 colon; more than 100 µM in the test on M19-MEL melanoma; 1.34 µM with DMS 114 small cell lung; more than 100 µM in the test on DLD-1 colon; more than 100 µM with HOP-18 NSCLC.
